Data on one compound can be found in article PMC12655682, “Screening-Identified Oxazole-4-Carboxamide KB-2777 Exhibits In Vitro Anti-Coronavirus Activity” (Pharmaceutics, 2025).

For series [1], the system named is HCoV-OC43. In words: Extracellular viral RNA by RT-qPCR of supernatants, HCoV-OC43/Vero E6. The class given is cell-based, Human coronavirus OC43. Conditions: Betacoronavirus 1, Vero C1008; HCoV-OC43/Vero E6, 72 h post-infection, n = 3. As for the experimental part: At 72 h post-infection, 100–200 μL of culture supernatant was collected. Viral RNA was extracted using the QIAamp Viral RNA Mini Kit (Qiagen, Hilden, Germany)according to the manufacturer’s instructions and quantified by one-step RT-qPCR on a real-time thermocycler.
EC50 values were determined from concentration–response curves generated by 2-fold serial dilutions, with at least four concentration points per curve. Each measurement was performed in triplicate technical replicates. Unless otherwise indicated, data are presented as mean ± SEM from three independent biological experiments (n = 3).
For absolute quantification, synthetic DNA (oligonucleotide) standards corresponding to the NL63, OC43, and PEDV amplicons were used. Ten-fold serial dilutions were prepared to generate standard curves. Ct values were interpolated against the curves to obtain gene copies per reaction and converted to genome copies per mL by accounting for extraction and elution volumes and the qPCR input volume.

The test system of series [2] is HCoV-NL63. In words: Time-of-addition, CPE-based cell protection (EZ-Cytox), HCoV-NL63/LLC-MK2. Also noted: species or system Human coronavirus NL63. Conditions: HCoV-NL63, 5 µM and 20 µM, 48 h post-infection. As for the experimental part:
For antiviral activity, cells in 96-well plates were infected and treated with test compounds as indicated and incubated for 48–72 h. Cell viability was quantified by WST (EZ-Cytox) at 450 nm on the same reader. Cytoprotective effect was calculated by normalizing to infected DMSO controls and converting to percent protection: % Protection = ((V_drug + virus − V_virus-only)/(V_mock − V_virus-only)) × 100. […]
Unless otherwise specified, infections were carried out at 100 TCID50 per well with 1 h adsorption at 37 °C, and compounds were used at 20 µM. Primary readout was S protein IFA at 48 h; EZ-Cytox and TCID50 at 48 h for the same regimens are provided in Supplementary Data (Figures S14 and S15). […]
Cell protection (%) was calculated relative to the DMSO control. […] (b) Infectious progeny released under the same TOA conditions, quantified as log10(TCID₅₀/mL) from culture supernatants (see Methods). […]
Figure S15. […] Cell protection (%) was calculated relative to the DMSO control. […]
Statistics: one-way ANOVA with Dunnett’s multiple comparisons vs DMSO; *P<0.05, **P<0.01, ***P<0.001, ****P<0.0001. (b) Infectious progeny released under the same TOA conditions, quantified as log₁₀(TCID₅₀/mL) from culture supernatants by endpoint dilution on Vero E6 indicator cells (Spearman–Kärber method; see Methods). […]

The nature of series [3]: Visible crystals or precipitates in the cell assay (soluble range). The class given is physicochemical. Conditions: cell assay medium; without loss of viability or morphological change. Here is the method: We screened 11 oxazole-4-carboxamide derivatives (Figure 1) against HCoV-NL63 in LLC-MK2 cells and quantified antiviral activity and cytotoxicity (Figure 2). Several derivatives inhibited NL63 with distinct selectivity profiles. […] Visible crystals or precipitates formed at ≥50 µM without loss of viability or morphological change; therefore, downstream assays were performed at ≤25 µM.

Series [4] relates to HCoV-NL63-infected LLC-MK2 cells. In words: Propidium iodide (PI) live/dead imaging in HCoV-NL63/LLC-MK2. The series is classed as cell-based, rhesus monkey. Conditions: 20 µM post-treatment, 48 h post-infection, vs virus + DMSO, p < 0.01. As for the experimental part:
Cells were infected as in the immunofluorescence assay (IFA) and were post-treated with KB-2777 (20 µM, DMSO ≤ 0.1%). At 48 h post-infection, cells were stained live with PI (approximately 1 µg/mL, 30 min) and were immediately imaged (PI/Hoechst). For each field, we counted total nuclei (Hoechst), NL63 S-positive cells, PI-positive cells, and double-positive (S∩PI) cells. Outcomes were % PI^+/Total and % PI^+ among infected cells (PI^+/NL63 S^+). […] Statistics used the Mann–Whitney U test (two-tailed).

The term EC50 denotes the concentration giving half of the maximal effect. For `COc1cccc(-c2oc(-c3ccc(C(F)(F)F)cc3)nc2C(=O)NCC2CC2)c1` [KB-2777, N-(cyclopropylmethyl)-5-(3-methoxyphenyl)-2-(4-(trifluoromethyl)phenyl)Oxazole-4-Carboxamide], in series [1], the EC50 came out at 1830 nM. In addition, the “CPE-based cell protection across TOA regimens” value in series [2] is on record as “reproduced this pattern”. Further, in series [3], the “concentration at which visible crystals or precipitates formed” value is listed as no less than 50 µM. Also, in series [4], the “% PI+ among infected cells (PI+/NL63 S+)” value is “reduces” and the “% PI+/Total cells” value was “reduces”.
